Data taken from patent US20250236654A1, “C-TYPE NATRIURETIC PEPTIDE ENGRAFTED ANTIBODIES” (Bayer Aktiengesellschaft, priority 2018, published 2025).
Where a SMILES comes first, the peptide text is derived from it. Bridges are numbered along the chain shown (N, C = ends). Where no end group is shown, it is not given here.

Legend:
[1] = biological target: T1, insulin degrading enzyme (IDE) (Rattus norvegicus, UniProt P35559); assay: Sensitivity towards proteolytic degradation by IDE (activity on receptor cell line after incubation); format: in vitro ADME; settings: 4 hours, 37° C., 0.6 μg/ml IDE
T1 construct: purchased Merck 407241-50UG
T1 sequence (P35559 1-1019): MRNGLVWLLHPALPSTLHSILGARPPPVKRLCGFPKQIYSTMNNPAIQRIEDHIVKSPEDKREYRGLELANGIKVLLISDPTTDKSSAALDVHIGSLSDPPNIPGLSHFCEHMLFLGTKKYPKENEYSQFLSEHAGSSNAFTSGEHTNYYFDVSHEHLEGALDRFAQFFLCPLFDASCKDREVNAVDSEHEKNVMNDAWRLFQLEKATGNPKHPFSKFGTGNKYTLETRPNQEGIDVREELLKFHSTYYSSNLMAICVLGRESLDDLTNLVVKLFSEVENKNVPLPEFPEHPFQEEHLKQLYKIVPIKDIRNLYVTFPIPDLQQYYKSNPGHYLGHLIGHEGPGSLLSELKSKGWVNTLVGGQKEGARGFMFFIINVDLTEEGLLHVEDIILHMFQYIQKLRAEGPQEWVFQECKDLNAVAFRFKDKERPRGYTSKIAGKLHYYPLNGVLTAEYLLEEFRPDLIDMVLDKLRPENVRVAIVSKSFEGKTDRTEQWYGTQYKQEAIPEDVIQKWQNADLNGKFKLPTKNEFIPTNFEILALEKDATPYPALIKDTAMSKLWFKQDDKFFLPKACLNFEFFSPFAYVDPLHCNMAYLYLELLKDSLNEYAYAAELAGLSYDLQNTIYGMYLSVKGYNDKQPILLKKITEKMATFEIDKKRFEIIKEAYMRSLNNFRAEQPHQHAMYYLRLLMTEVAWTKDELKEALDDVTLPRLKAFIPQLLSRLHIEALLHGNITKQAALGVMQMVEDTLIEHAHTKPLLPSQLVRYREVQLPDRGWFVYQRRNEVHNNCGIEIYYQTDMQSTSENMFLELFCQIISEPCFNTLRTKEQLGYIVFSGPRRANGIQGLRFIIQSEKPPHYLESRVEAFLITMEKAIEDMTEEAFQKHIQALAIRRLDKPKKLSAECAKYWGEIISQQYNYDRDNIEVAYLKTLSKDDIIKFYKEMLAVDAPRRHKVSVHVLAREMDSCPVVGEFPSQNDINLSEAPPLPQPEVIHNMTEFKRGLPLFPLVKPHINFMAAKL

[2] = biological target: T2, neutral endopeptidase (NEP) (Homo sapiens, UniProt P08473); assay: Sensitivity towards proteolytic degradation by NEP (activity on receptor cell line after incubation); format: in vitro ADME; settings: 4 hours, 37° C., 0.6 μg/ml NEP
T2 construct: purchased R&D Systems 1182-ZNC
T2 sequence (P08473 whole entry): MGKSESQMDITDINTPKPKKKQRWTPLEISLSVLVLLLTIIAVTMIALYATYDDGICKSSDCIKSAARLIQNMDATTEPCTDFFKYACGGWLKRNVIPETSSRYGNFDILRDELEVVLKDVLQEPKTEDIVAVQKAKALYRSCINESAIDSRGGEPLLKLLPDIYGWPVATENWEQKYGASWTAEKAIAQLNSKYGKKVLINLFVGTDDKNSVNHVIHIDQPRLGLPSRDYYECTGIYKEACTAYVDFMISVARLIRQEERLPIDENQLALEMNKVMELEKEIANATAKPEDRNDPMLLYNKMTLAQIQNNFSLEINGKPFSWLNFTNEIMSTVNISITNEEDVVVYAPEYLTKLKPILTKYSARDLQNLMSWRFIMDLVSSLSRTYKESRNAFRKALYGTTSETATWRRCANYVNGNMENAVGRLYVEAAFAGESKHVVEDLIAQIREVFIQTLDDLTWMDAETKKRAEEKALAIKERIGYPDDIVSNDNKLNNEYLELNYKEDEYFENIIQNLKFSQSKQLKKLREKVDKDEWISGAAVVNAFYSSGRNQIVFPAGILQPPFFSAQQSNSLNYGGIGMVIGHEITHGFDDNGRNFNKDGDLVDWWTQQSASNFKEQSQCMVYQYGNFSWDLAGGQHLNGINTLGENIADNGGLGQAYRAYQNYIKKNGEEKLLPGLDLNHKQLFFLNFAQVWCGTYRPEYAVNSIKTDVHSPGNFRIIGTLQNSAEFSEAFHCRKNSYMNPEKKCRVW

rat BNP receptor (NPR-A) = biological target: T3, rat BNP receptor (NPR-A) (Rattus norvegicus, UniProt P18910); assay: Fluorescence-based rat BNP receptor (NPR-A) GCaMP6 reporter cell line
T3 construct: expressed in transfected cells; host or cells: CHO cell line stably expressing GCaMP6, co-transfected with CNGA2 and rat NPR-A
T3 sequence (P18910 29-1057): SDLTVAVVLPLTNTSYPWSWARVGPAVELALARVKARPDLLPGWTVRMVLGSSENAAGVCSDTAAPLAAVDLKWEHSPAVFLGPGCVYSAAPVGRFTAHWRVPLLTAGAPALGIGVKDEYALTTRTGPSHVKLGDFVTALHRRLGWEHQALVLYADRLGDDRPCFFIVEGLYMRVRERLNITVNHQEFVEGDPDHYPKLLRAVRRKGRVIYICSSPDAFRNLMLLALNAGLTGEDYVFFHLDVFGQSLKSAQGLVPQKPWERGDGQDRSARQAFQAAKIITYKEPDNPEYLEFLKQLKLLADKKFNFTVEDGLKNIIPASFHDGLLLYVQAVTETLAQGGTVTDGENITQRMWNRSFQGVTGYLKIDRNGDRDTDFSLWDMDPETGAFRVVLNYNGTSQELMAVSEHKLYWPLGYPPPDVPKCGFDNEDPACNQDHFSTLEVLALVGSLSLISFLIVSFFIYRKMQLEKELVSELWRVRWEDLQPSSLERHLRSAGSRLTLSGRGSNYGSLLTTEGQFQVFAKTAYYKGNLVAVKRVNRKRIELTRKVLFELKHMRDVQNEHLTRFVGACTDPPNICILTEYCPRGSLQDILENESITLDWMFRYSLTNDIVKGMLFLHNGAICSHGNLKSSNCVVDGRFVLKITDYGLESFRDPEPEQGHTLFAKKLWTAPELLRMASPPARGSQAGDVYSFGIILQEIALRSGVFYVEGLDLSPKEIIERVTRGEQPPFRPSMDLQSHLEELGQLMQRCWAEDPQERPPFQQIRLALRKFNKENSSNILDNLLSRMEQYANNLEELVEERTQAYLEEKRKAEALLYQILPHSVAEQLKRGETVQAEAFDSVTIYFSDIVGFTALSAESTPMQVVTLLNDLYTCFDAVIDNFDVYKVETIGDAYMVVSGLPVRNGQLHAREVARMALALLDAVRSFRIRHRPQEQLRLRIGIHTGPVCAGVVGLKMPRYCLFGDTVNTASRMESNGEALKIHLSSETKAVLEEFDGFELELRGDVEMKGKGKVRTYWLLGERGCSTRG
Excerpt: Activity data of BNP engrafted antibodies in NPR-A receptor cell line A luminescence-based rat BNP receptor (NPR-A) cell line was generated as described previously (Wunder et al. (2013), Eur J Pharmacol. 698: 131). Accordingly, a fluorescence-based rat BNP receptor (NPR-A) cell line was generated by co-transfecting a CHO cell line, stably expressing the fluorescent calcium sensor protein GCaMP6, with plasmid constructs encoding CNGA2 (cGMP biosensor) and rat NPR-A.
BNP receptor GCaMP6 cells were cultured for one day on black, clear-bottom 384-well microtiter plates (2500 cells/well). After removal of the cell culture medium reporter cells were loaded for 20 min with Tyrode (130 mM NaCl, 5 mM KCl, 2 mM CaCl2, 20 mM HEPES, 1 mM MgCl2, 4.8 mM NaHCO3 at pH 7.4) containing a black masking dye at 37° C. and 5% CO2. IBMX (0.2 mM) was used to prevent cGMP degradation by endogenous phosphodiesterases.
Fluorescence measurements (3 min, kinetic mode) were directly started upon agonist addition. Receptor ligands were added in Tyrode containing a black masking dye and 0.1% BSA. Measurements were done on a FLIPR Tetra®.

[3] = system: spontaneously hypertensive rats; assay: Blood pressure by radiotelemetry in conscious spontaneously hypertensive rats; format: in vivo, rat; parameters: drop in mean arterial blood pressure (MAP): dose or concentration left out as unconfirmed; settings: intraperitoneal
Description: Female spontaneously hypertensive rats (SHR/N Crl BR, Charles River) with a body weight of 210-300 g were used for these studies. All animals were housed in individual cages at 22-24° C. ambient temperature and maintained on a 12-hour light/dark cycle with free access to standard laboratory rat chow and water ad libitum. Telemeter (HD-10, DSI) implantation was performed a minimum of 14 days before animals were used for blood pressure measurements. Surgery was performed under aseptic conditions. After shaving the abdominal wall, a midline abdominal incision was made, and the fluid-filled sensor catheter was inserted upstream into the exposed descending aorta between the iliac bifurcation and the renal arteries. According to the DSI guidelines the tip of the telemetric catheter was located caudal to the renal arteries and secured by tissue adhesive. The transmitter body was affixed to the inner peritoneal wall before closure of the abdomen. […] Data are expressed as % of basal values±SEM of at least 4 animals per group. The basal value for each animal was calculated as the average of the values measured in two hours prior to substance application (7:00-9:00 AM). Data are then expressed as averages every half hour, starting 15 minutes post application. […]

[4] = system: PE-contracted aortic rings; assay: Vasorelaxation of isolated rat aortic rings contracted by phenylephrine
Description: All experiments were conducted in accordance with institutional guidelines and approved by the local committee on animal experiments. Male Sprague-Dawley rats (weighing 250-300 g) were anesthetized with pentobarbital sodium (40 mg/kg i.p.), killed by decapitation, and exsanguinated. The thoracic aorta was excised and placed in ice-cold Krebs buffer of the following composition: 130 mM NaCl, 14.9 mM NaHCO3, 5.5 mM dextrose, 4.7 mM KCl, 1.18 mM KH2PO4, 1.17 mM MgSO47H2O, and 1.6 mM CaCl22H2O. The vessel was pinned in a Sylgard Petri dish filled with chilled Krebs' solution, cleaned of fat and connective tissue, and cut into ring segments of approximately 3 to 4 mm in length. […] Changes in isometric force were recorded using a PowerLab data acquisition system (software Lab Chart 7.0)
After the equilibration period, aortic rings were challenged with 80 mM KCl to check tissue viability. Next, the endothelial integrity of the preparations was determined by verifying the responsiveness to acetylcholine (ACh, 1 μM) in vessels pre-contracted with Phenylephrine (PE, 1 μM). After wash-out and a period of equilibration, Phenylephrine (PE, 1 μM) was used to induce contraction, thereafter natriuretic peptides and natriuretic peptide engrafted IgGs were evaluated for vasorelaxation.

| Molecule | sensitivity/resistance to proteolytic degradation by IDE [1] | sensitivity/resistance to proteolytic degradation by NEP [2] | EC50 (rat BNP receptor (NPR-A)) | drop in mean arterial blood pressure (MAP) [3] | duration of effect on MAP ([3]; 500 g dose) | vasodilation in PE-contracted aortic rings [4] | Potency (log EC50 values), vasodilation ([4]; endothelium-intact rat aortic rings contracted by phenylephrine (1 μM)) |
| --- | --- | --- | --- | --- | --- | --- | --- |
| CC[C@H](C)[C@@H]1NC(=O)[C@H](CCCNC(=N)N)NC(=O)[C@H](CC(=O)O)NC(=O)[C@H](CCSC)NC(=O)[C@H](CCCNC(=N)N)NC(=O)CNC(=O)CNC(=O)[C@H](Cc2ccccc2)NC(=O)[C@@H](NC(=O)[C@H](CO)NC(=O)[C@H](CO)NC(=O)[C@H](CCCNC(=N)N)NC(=O)[C@H](CCCNC(=N)N)NC(=O)[C@H](CC(C)C)NC(=O)[C@@H](N)CO)CSSC[C@@H](C(=O)N[C@@H](CC(N)=O)C(=O)N[C@@H](CO)C(=O)N[C@@H](Cc2ccccc2)C(=O)N[C@@H](CCCNC(=N)N)C(=O)N[C@@H](Cc2ccc(O)cc2)C(=O)O)NC(=O)CNC(=O)[C@H](CC(C)C)NC(=O)CNC(=O)[C@H](CO)NC(=O)[C@H](CCC(N)=O)NC(=O)[C@H](C)NC(=O)CNC1=O [ANP, reference compound] | high sensitivity |  |  |  |  |  |  |
| CC[C@H](C)[C@@H]1NC(=O)[C@H](CCCNC(=N)N)NC(=O)[C@H](CC(=O)O)NC(=O)[C@H]([C@@H](C)CC)NC(=O)[C@H](CCCCN)NC(=O)[C@H](CCC(N)=O)NC(=O)CNC(=O)[C@H](Cc2ccccc2)NC(=O)[C@@H](NC(=O)[C@H](CO)NC(=O)[C@H](CO)NC(=O)[C@H](CO)NC(=O)[C@H](Cc2c[nH]cn2)NC(=O)[C@H](C)NC(=O)[C@H](CCSC)NC(=O)[C@H](CCCCN)NC(=O)[C@H](CO)NC(=O)[C@@H](N)CC(N)=O)CSSC[C@@H](C(=O)N[C@@H](CC(=O)O)C(=O)NCC(=O)N[C@@H](CC(C)C)C(=O)N[C@@H](CCCNC(=N)N)C(=O)N[C@@H](CC(C)C)C(=O)N[C@@H](Cc2ccccc2)C(=O)O)NC(=O)CNC(=O)[C@H](CC(C)C)NC(=O)[C@H](CCCNC(=N)N)NC(=O)[C@H](CO)NC(=O)[C@H](C(C)C)NC(=O)[C@H](C)NC(=O)CNC1=O [BNP, reference compound] (H-NSKMAHSSSCFGQKIDRIGAVSRLGCDGLRLF-OH; disulfide 10-26; N-terminus and C-terminus assumed) | high sensitivity | high sensitivity | 2.9 nM |  |  |  |  |
| ANP peptide: Rat ANP peptide (ADH-GM-10057T, Santai Labs) used as a reference (SLRRSSCFGGRIDRIGAQSGLGCNSFRY; disulfide 7-23; UniProt P01161 123-150, looked up) [reference compound] |  |  |  | approximately 25% | 6 to 8 h | dose-dependent vasodilation | −7.4 |
